Patent US7173014B2, “HIV-specific synthetic oligonucleotides and methods of their use” (priority 1997, dated 2007)

Test system: low passage, clinical strains of HIV-1
Assay: Anti-HIV activity in fresh human peripheral blood mononuclear cells
Assay type: cell-based
Details: fresh human PBMC; varies from strain to strain
Protocol: In another experiment, the anti-HIV activity of Oligos 12, 32, and 41 was evaluated against a variety of low passage, clinical strains of HIV-1 in fresh human peripheral blood mononuclear cells. These strains include viruses obtained from pediatric patients attending the Children's Hospital University of Alabama at Birmingham as well as viruses representative of the various HIV-1 clades found throughout the world, shown below in TABLE 4.
Fresh human peripheral blood lymphocytes (PBL) were isolated from voluntary Red Cross donors, seronegative for HIV and HBV. Leukophoresed blood was diluted 1:1 with Dulbecco's phosphate buffered saline (PBS), layered over 14 ml of Ficoll-Hypaque density gradient in a 50 ml centrifuge tube. Tubes were then centrifuged for 30 minutes at 600×g. Banded PBLs were gently aspirated from the resulting interface and subsequently washed 2× with PBS by low speed centrifugation. After final wash, cells were enumerated by trypan blue exclusion and re-suspended at 1×10^7/ml in RPMI 1640 with 15% Fetal Bovine Serum (FBS), 2 mM L-glutamine, […] PHA-P and allowed to incubate for 48–72 hours at 37° C. After incubation, PBLs were centrifuged and reset in RPMI 1640 with 15% FBS, 2 mM L-glutamine, 100 U/ml penicillin, 100 μg/ml streptomycin, 10 μg/ml gentamycin, and 20 U/ml recombinant human IL-2. PBLs were maintained in this medium at a concentration of 1–2×10^6/ml with bi-weekly medium changes, until use in assay protocol. […]
In the standard PBL assay (MOI: 0.2), the assay was ended on day 7 following collection of cell free supernatant samples for reverse transcriptase activity assay. In the low MOI PBL assay (MOI: 0.02), supernatant samples were collected on day 6, day 11, and day 14 post-infection and analyzed for RT activity. […] Opti-Fluor O was added to each sample and incorporated radioactivity was quantified utilizing a liquid scintillation counter, (Wallac 1450 Microbetaplus, Gaithersburg, Md.).

Substance: Oligo 41: oligonucleotide having SEQ ID NO:6; sequence not printed, not listed in TABLE 2 (UCGCACCCATCTCTCTCCUUC; chemistry not given here)
- activity against low passage clinical T-tropic strains of HIV-1: active
